Data published in US20250066369A1, “BICYCLIC PHTHALAZIN-1(2H)-ONE DERIVATIVES AND RELATED USES” (NodThera Limited, priority 2022, published 2025).

Test system: IL-1β release upon NLRP3 activation in peripheral blood mononuclear cells (PBMC)
Experiment: PBMC IC50 determination assay: inhibition of IL-1β release upon NLRP3 activation
Type: cell-based
Conditions: PBMC primed with LPS 3 h, compound 30 min, stimulated with ATP (5 mM) or nigericin (10 μM) 1 h, IL-1β by ELISA (Protocol A) or HTRF (Protocol B)
Experimental: PBMC IC50 determination assay. The compounds of the present disclosure were tested for their inhibitory activity against IL-1β release upon NLRP3 activation in peripheral blood mononuclear cells (PBMC).
Protocol A. PBMC were isolated from buffy coats by density gradient centrifugation on Histopaque-1077 (Sigma, cat no. 10771). Isolated cells were seeded into the wells of a 96-well plate and incubated for 3 h with lipopolysaccharide (LPS). Following medium exchange, the compounds of the present disclosure were added (a single compound per well) and the cells were incubated for 30 min. Next, the cells were stimulated either with ATP (5 mM) or nigericin (10 μM) for 1 h and the cell culture media from the wells were collected for further analysis.
The release of IL-1β into the media was determined by a quantitative detection of IL-1β in the media using an IL-1β enzyme-linked immunosorbent assay (ELISA) Ready-SET-Go!, eBioscience cat. No. 88-7261-88. Briefly, in a first step, high affinity binding plates (Corning, Costar 9018 or NUNC Maxisorp Cat No. 44-2404) were coated overnight at 4° C. with specific capture antibody included in the kit (anti-human IL-1β ref. 14-7018-68). Subsequently, plates were blocked with blocking buffer for 1 h at room temperature (rt) and after washing with a buffer (PBS with 0.05% Tween-20) incubated with protein standard and culture media. After 2 h of incubation at rt, plates were washed and incubated with biotinylated detection antibody included in the kit (anti-human IL-1β Biotin ref 33-7110-68) for 1 h at rt. Plates were washed and incubated with HRP-streptavidin for 30 min at rt and washed again. The signal was developed after addition of 3,3′,5,5′-tetramethylbenzidine-peroxidase (TMB) until colour appeared and the reaction was stopped by 2 M H2SO4. A microplate spectrophotometer (BioTek) was used to detect signals with 450 nm. The detection range of IL-1β ELISA was […].
Protocol B. PBMC were isolated from buffy coats by density gradient centrifugation on Histopaque-1077 (Sigma, cat no. 10771). Isolated cells were seeded into the wells (280,000 cells/well) of a 96-well plate and incubated for 3 h with lipopolysaccharide (LPS, 1 μg/mL diluted 1000× from a 1 mg/mL stock solution). The compounds of the present disclosure were added (a single compound per well) and the cells were incubated for 30 min. Next, the cells were stimulated with ATP (5 mM final concentration diluted 20× from a 100 mM stock solution) for 1 h and the cell culture media from the wells were collected for further analysis.
The release of IL-1β into the media was determined by quantitative detection of IL-1β in the media using HTRF®, CisBio cat. No. 62HIL1BPEH. Briefly, cell culture supernatant were dispensed directly into the assay plate containing antibodies labelled with the HTRF® donor and acceptor. A microplate spectrophotometer (BMG) was used to detect signals at 655 nm and 620 nm. The detection range of IL-1β HTRF® was 39-6500 μg/mL.

Compound	IC50 (PBMC) [nM]	IC50 [nM]
CCc1nn(CC(=O)Nc2ncccn2)c(=O)c2ccc(C3CC3)nc12 [Compound 32, 2-(2-Cyclopropyl-8-ethyl-5-oxo-pyrido[2,3-d]pyridazin-6-yl)-N-pyrimidin-2-yl-acetamide]	100 to 1000	–
CCc1nn(CC(=O)Nc2ncc(F)cn2)c(=O)c2ccc(C3CC3)nc12 [Compound 33, 2-(2-Cyclopropyl-8-ethyl-5-oxo-pyrido[2,3-d]pyridazin-6-yl)-N-(5-fluoropyrimidin-2-yl)acetamide]	100 to 1000	–
Cc1nn(CC(=O)Nc2ncccn2)c(=O)c2ccc(C3CC3)nc12 [Compound 34, 2-(2-Cyclopropyl-8-methyl-5-oxo-pyrido[2,3-d]pyridazin-6-yl)-N-pyrimidin-2-yl-acetamide]	1000 to 3000	–
Cc1nn(CC(=O)Nc2ncc(F)cn2)c(=O)c2ccc(C3CC3)nc12 [Compound 35, 2-(2-Cyclopropyl-8-methyl-5-oxo-pyrido[2,3-d]pyridazin-6-yl)-N-(5-fluoropyrimidin-2yl)acetamide]	100 to 1000	–
CCc1nc2c(C(C)C)nn(CC(=O)Nc3ncc(F)cn3)c(=O)c2s1 [Compound 36]	≤ 100	–
CCn1cc2c(=O)n(CC(=O)Nc3ncccn3)nc(CF)c2n1 [Compound 40, 2-(2-Ethyl-7-(fluoromethyl)-4-oxo-2,4-dihydro-5H-pyrazolo[3,4-d]pyridazin-5-yl)-N-(pyrimidin-2-yl)acetamide]	1000 to 3000	–
CCc1ccc2c(=O)n(CC(=O)Nc3ncccn3)nc(C(C)C)c2n1 [Compound 42]	100 to 1000	–
CCc1ccc2c(=O)n(CC(=O)Nc3ncc(F)cn3)nc(C(C)C)c2n1 [Compound 43]	100 to 1000	–
Cc1nn(CC(=O)N[C@@H]2CCCN(C)C2)c(=O)c2ccc(C3CC3)nc12 [Compound 46]	1000 to 3000	–
Cc1nn(CC(=O)N[C@@H]2CCCN(C3CCC3)C2)c(=O)c2ccc(C3CC3)nc12 [Compound 47]	100 to 1000	–
CC(C)c1nn(C2(C(=O)Nc3ncccn3)CC2)c(=O)c2cn(C(C)C)nc12 [Compound 50, 1-(2,7-Diisopropyl-4-oxo-2,4-dihydro-5H-pyrazolo[3,4-d]pyridazin-5-yl)-N-(pyrimidin-2-yl)cyclopropane-1-carboxamide]	1000 to 3000	–
CC(C)c1nn(C2(C(=O)Nc3ncc(F)cn3)CC2)c(=O)c2cn(C(C)C)nc12 [Compound 51, 1-(2,7-Diisopropyl-4-oxo-2,4-dihydro-5H-pyrazolo[3,4-d]pyridazin-5-yl)-N-(5-fluoropyrimidin-2-yl)cyclopropane-1-carboxamide]	100 to 1000	–
CCc1cc2c(=O)n(CC(=O)Nc3ncccn3)nc(CC)c2o1 [Compound 54, 2-(2,7-Diethyl-4-oxofuro[2,3-d]pyridazin-5(4H)-yl)-N-(pyrimidin-2-yl)acetamide]	100 to 1000	–
CCc1cc2c(=O)n(CC(=O)Nc3ncc(F)cn3)nc(CC)c2o1 [Compound 55, 2-(2,7-Diethyl-4-oxofuro[2,3-d]pyridazin-5(4H)-yl)-N-(5-fluoropyrimidin-2-yl)acetamide]	100 to 1000	–
CC(C)c1nn(CC(=O)Nc2ncc(F)cn2)c(=O)c2cc(Cl)sc12 [Compound 59, 2-(2-Chloro-7-isopropyl-4-oxothieno[2,3-d]pyridazin-5(4H)-yl)-N-(5-fluoropyrimidin-2-yl)acetamide]	100 to 1000	–
CC(C)c1nn(CC(=O)Nc2ncc(F)cn2)c(=O)c2sc(Cl)cc12 [Compound 60, 2-(2-Chloro-4-isopropyl-7-oxothieno[2,3-d]pyridazin-6(7H)-yl)-N-(5-fluoropyrimidin-2-yl)acetamide]	100 to 1000	–
CC(C)c1nn(CC(=O)Nc2ncc(F)cn2)c(=O)c2sc(Cl)nc12 [Compound 61]	1000 to 3000	–

Compound	IC50 (PBMC) [nM]	IC50 [nM]
CC(C)c1nn(CC(=O)Nc2ncccn2)c(=O)c2cc(Br)oc12 [Compound 62, 2-(2-Bromo-7-isopropyl-4-oxofuro[2,3-d]pyridazin-5(4H)-yl)-N-(pyrimidin-2-yl)acetamide]	100 to 1000	–
Cc1cnc(NC(=O)Cn2nc(C(C)C)c3nn(C(C)C)cc3c2=O)nc1 [Compound 63, 2-(2,7-Diisopropyl-4-oxo-pyrazolo[3,4-d]pyridazin-5-yl)-N-(5-methylpyrimidin-2-yl)acetamide]	100 to 1000	–
CC(C)c1nn(CC(=O)Nc2ncccn2)c(=O)c2sc(Br)cc12 [Compound 64, 2-(2-Bromo-4-isopropyl-7-oxothieno[2,3-d]pyridazin-6(7H)-yl)-N-(pyrimidin-2-yl)acetamide]	100 to 1000	–
CC(C)c1nn(CC(=O)Nc2ncccn2)c(=O)c2cn(C3CC3)nc12 [Compound 65, 2-(2-Cyclopropyl-7-isopropyl-4-oxo-2,4-dihydro-5H-pyrazolo[3,4-d]pyridazin-5-yl)-N-(pyrimidin-2-yl)acetamide]	100 to 1000	–
CC(C)c1nn(C2(C(=O)Nc3ncccn3)CC2)c(=O)c2cn(C3CC3)nc12 [Compound 66, 1-(2-Cyclopropyl-7-isopropyl-4-oxo-2,4-dihydro-5H-pyrazolo[3,4-d]pyridazin-5-yl)-N-(pyrimidin-2-yl)cyclopropane-1-carboxamide]	–	3000 to 10000
CC(C)c1nn(CC(=O)Nc2ncc(Cl)cn2)c(=O)c2cn(C(C)C)nc12 [Compound 67, N-(5-Chloropyrimidin-2-yl)-2-(2,7-diisopropyl-4-oxo-2,4-dihydro-5H-pyrazolo[3,4-d]pyridazin-5-yl)acetamide]	100 to 1000	–
CC(C)c1nn(CC(=O)N[C@H]2C[C@@](C)(O)C2)c(=O)c2cn(C(C)C)nc12 [Compound 68, 2-(2,7-Diisopropyl-4-oxo-2,4-dihydro-5H-pyrazolo[3,4-d]pyridazin-5-yl)-N-((cis)-3-hydroxy-3-methylcyclobutyl)acetamide]	1000 to 3000	–
CCc1cc2c(C(C)C)nn(CC(=O)N[C@H]3C[C@@](C)(O)C3)c(=O)c2s1 [Compound 69, 2-(2-Ethyl-4-isopropyl-7-oxothieno[2,3-d]pyridazin-6(7H)-yl)-N-((cis)-3-hydroxy-3-methylcyclobutyl)acetamide]	100 to 1000	–
CC(C)c1nn(C2(C(=O)Nc3ncccn3)CC2)c(=O)c2cn(C3CC3)nc12 [Compound 70, 1-(2-Cyclopropyl-7-isopropyl-4-oxo-2,4-dihydro-5H-pyrazolo[3,4-d]pyridazin-5-yl)-N-(pyrimidin-2-yl)cyclopropane-1-carboxamide]	–	10000 to 50000
CC(C)c1nn(CC(=O)Nc2ncccn2)c(=O)c2cn(C3CCC3)nc12 [Compound 71, 2-(2-Cyclobutyl-7-isopropyl-4-oxo-2,4-dihydro-5H-pyrazolo[3,4-d]pyridazin-5-yl)-N-(pyrimidin-2-yl)acetamide]	1000 to 3000	–
CC(C)c1nn(CC(=O)Nc2ncco2)c(=O)c2cn(C(C)C)nc12 [Compound 72, 2-(2,7-Diisopropyl-4-oxo-pyrazolo[3,4-d]pyridazin-5-yl)-N-oxazol-2-yl-acetamide]	100 to 1000	–
CC(C)c1nn(CC(=O)Nc2ncco2)c(=O)c2cn(C3CC3)nc12 [Compound 73, 2-(2-Cyclopropyl-7-isopropyl-4-oxo-2,4-dihydro-5H-pyrazolo[3,4-d]pyridazin-5-yl)-N-(oxazol-2-yl)acetamide]	100 to 1000	–
CC(C)c1nn(CC(=O)N[C@H]2C[C@@](C)(O)C2)c(=O)c2sc(Br)cc12 [Compound 74, 2-(2-Bromo-4-isopropyl-7-oxothieno[2,3-d]pyridazin-6(7H)-yl)-N-(cis-3-hydroxy-3-methylcyclobutyl)acetamide]	1000 to 3000	–
CC(C)c1nn(CC(=O)Nc2ncccn2)c(=O)c2sc(C3CC3)cc12 [Compound 75, 2-(2-Cyclopropyl-4-isopropyl-7-oxothieno[2,3-d]pyridazin-6(7H)-yl)-N-(pyrimidin-2-yl)acetamide]	100 to 1000	–
CC(C)c1nn(CC(=O)Nc2ncco2)c(=O)c2sc(C3CC3)cc12 [Compound 76, 2-(2-Cyclopropyl-4-isopropyl-7-oxothieno[2,3-d]pyridazin-6(7H)-yl)-N-(oxazol-2-yl)acetamide]	100 to 1000	–
CCNc1cc2c(C(C)C)nn(CC(=O)Nc3ncccn3)c(=O)c2s1 [Compound 78, 2-(2-(Ethylamino)-4-isopropyl-7-oxothieno[2,3-d]pyridazin-6(7H)-yl)-N-(pyrimidin-2-yl)acetamide]	≤ 100	–
